In patent publication US20090238852A1, “METHODS FOR CONTROLLING INTRACELLULAR CALCIUM LEVELS ASSOCIATED WITH AN ISCHEMIC EVENT” (University of Utah Research Foundation, priority 2008, published 2009):
Like-named read-outs stand apart in the source and are kept apart here.

Columns and labels:
[1] = system: anti-Xa; conditions: product of the procedure of U.S. Pat. No. 5,990,097; cited from earlier work
[2] = in vivo
Protocol: A study was performed in 38 volunteer human subjects to assess the safety of escalating bolus doses of 2-O, 3-O desulfated heparin (ODSH). The study was a Phase I, randomized, double-blind, dose-escalation study with a single-day treatment period. Subjects were between the ages of 18 and 45, were not pregnant, and were normal in body weight. They all had normal coagulation function and hemoglobin values at baseline.
Two subjects also received an injection of fully anticoagulated unfractionated heparin for comparison. ODSH dose groups were run in a series, and safety and tolerance data were evaluated prior to the start of the next dose level (4, 8 12, 16 and 20 mg/kg bolus intravenous doses). Twenty eight (28) subjects randomly received ODSH and 9 subjects were randomized to receive placebo, with an additional two subjects receiving commercially available unfractionated heparin.
For each bolus dose, ODSH as a 50 mg/mL formulation was diluted with normal saline and a total volume of 50 ml was infused over 15 minutes containing the calculated amount of ODSH the subject was to receive. Placebo consisted of 50 mL of normal saline infused over 15 minutes. For subjects receiving heparin, 5,000 units (approximately 0.5 mg/kg) of heparin was diluted into 50 ml of normal saline and infused over 15 minutes.
Immediately before infusion and beginning 7 minutes after the start of each infusion, blood was drawn at periodic times for 24 hours to monitor the effect of infusion on the following laboratory studies: activated partial thromboplastin time (aPTT); prothrombin time (PT); activated clotting time (ACT); and ODSH plasma level. Serum chemistries and a complete blood count were checked immediately before infusion and at eight (8) and twenty-four (24) hours later. Using values for aPTT and ODSH levels, pharmacokinetic parameters were calculated by noncompartmental methods using a commercial software program (PhAST 2.3-001). The following pharmacokinetic parameters were calculated: • a) Maximum measured plasma concentration (Cmax); • b) First-order terminal elimination rate constant (Kel), calculated from a semi-log plot of the serum concentration versus time curve; this parameter was calculated by linear least-square regression analysis using the maximum number of points in the terminal log-linear phase (e.g., 3 or more non-zero serum concentrations); • c) Time of the maximum measured drug plasma concentration (tmax); • d) The area under the plasma concentration versus time curve from time 0 to the last observation (AUC 0-t), calculated by the linear trapezoidal method; • e) The area under the plasma concentration versus time curve from time 0 to infinity (AUCinf), which was calculated as the sum of AUC 0-t plus the ratio of the last measurable serum concentration to the elimination rate constant; • f) First-order terminal elimination (t1/2), calculated as 0.693/Kel; • g) Total body clearance (CL), calculated as Dose/AUCinf, and • h) Total volume of distribution (Vdss), calculated as MRT×CL.

[3] = system: rabbit ventricular myocytes; assay: Intracellular calcium [Ca^++]i in ventricular myocytes during paced metabolic ischemia (PMI), Fluo-3 flow cytometry; assay type: cell-based
Excerpt: Consequently, it prevents intracellular sodium overload and subsequent reverse mode operation of the sodium-calcium exchanger. The effect of 2-O, 3-O desulfated heparin on accumulation of intracellular Ca^++ during ischemia was studied in an adult rabbit ventricular myocyte model previously reported (Boston D R, et al. J Pharmacol Exp Ther 285:716-723, 1998; Li F, et al. J Mol Cell Cardiol 33:2145-2155, 2001). Isolated cardiomyocytes have been validated as reliable models of ischemia (Diaz, R J, Wilson G J. Cardiovasc Res 70:286-296, 2006).
To produce the model, hearts are removed from albino rabbits (2-3 kg) anesthetized with sodium pentobarbital (65 mg/kg IV). The heart was immediately attached to an aorta cannula. Continuous perfusion of the coronary arteries at 37° C. by a pump (Masterflex, Cole-Parmer Instrument Co., Chicago, Ill.) was initiated at a perfusion pressure of 60 mm Hg. The heart was first perfused with nominally Ca^++-free modified Krebs-Ringer bicarbonate buffered solution (MKRBB, pH 7.40, containing in mmol/L: NaCl 126, KCl 4.4, […], MgCl2 1.0, HEPES 24, probenecid 0.5 and glucose 5) for 10 min, immediately followed by 15-25 min of recirculating perfusion with the same solutions containing 0.3 mg/ml collagenase (Type 2, Worthington Biochemical, Freehold, N.J.), 0.4 mg/mL hyaluronidase (Type-S, Sigma-Aldrich, St. Louis, Mo.) and 50 μmol/L CaCl2. The heart was then detached from the cannula, and the left ventricle was minced and transferred to a 50 mL conical tube with the same solution containing 0.24 mg/mL collagenase, 0.02 mg/mL trypsin and 50 μmol/L Ca^++ for a second digestion. The minced tissue was continuously agitated by gassing the solution with 5% CO2 and 95% O2 to help release isolated myocytes. The resulting supernatant was transferred to another conical tube with the same volume of the same solution containing 0.03 mg/mL of trypsin inhibitor (Sigma-Aldrich). The cell suspension was centrifuged at 5×g for 5 minutes. The supernatant was discarded and cells were resuspended in solution with a higher Ca^++ concentration (200 μmol/L) and incubated in a CO2 incubator (5% CO2, 28° C.) to settle down cells by gravity for 10 min. The same procedure was repeated twice to bring up the Ca^++ concentration slowly (500, then 1000 μmol/L). Calcium step-up solutions were made from MKRBB with 2% albumin, 50 μmol/L CaCl2 mixed with the appropriate amount of minimum essential medium (MEM, Gibco Laboratories, Grand Island, N.Y.). At the end of isolation, cells were filtered with a […] to avoid cell clumping during flow cytometry studies. The yield of rod-shaped viable myocytes averaged 50%. Cells were used for experiments within 4 hours after dissociation.
In these studies, intracellular calcium concentration [Ca^++]i was measured by flow cytometry. Measurement of isolated mouse and rabbit ventricular myocyte [Ca^2+]i and [Na^+]i by flow cytometry has been described (Zhang et al., J. Cardiovasc. Pharmacol. 51: 443-449 (2008); Li et al., J. Mol. Cell. Cardiol. 33: 2145-2155 (2001)). [Ca^++]i was measured with the Ca^++ sensitive fluorescent probe, Fluo 3-AM (Molecular Probes, Eugene, Oreg.), using a FACScan (Becton-Dickinson, MA). The cells were exposed to 4 μmol/L Fluo-3 AM for 30 min at 37° C. The cells were then separated into aliquots. After 40 min of wash, the cells were exposed to paced metabolic ischemia (MI) for 45 min at 37° C. Metabolic ischemia was accomplished by incubating cells in a glucose-free MKRBB solution (pH 7.40) containing 2 mmol/L sodium cyanide (NaCN) to impair mitochondrial and glycolytic generation of ATP. To reproduce the situation in the beating ischemic heart, during the period of metabolic ischemia, myocytes were placed in a 5-well chamber with equal volumes of myocyte suspensions from the same heart dissociation placed in each well. The chamber was water bathed to maintain temperature at 37° C. and bubbled with 5% CO2 in air to keep myocytes in suspension. […]

Question: What does the source list for 2-O, 3-O desulfated heparin [ODSH]?
Answer: anti-Xa anti-coagulant activity [1]: less than 10 U/mg; Mean clearance values, range over the dose groups ([2]; human, iv): 0.172 to 0.257 mL/min/kg; Mean elimination half-life values, range over the dose groups ([2]; human, iv): 1.93 to 2.72 h; Median tmax values, range over the dose groups ([2]; human, iv): 0.37 to 0.88 h; AUC 0-t ([2]; human, iv, 4 mg/kg): 307.2 µg·h/mL; AUCinf ([2]; human, iv, 4 mg/kg): 415.2 µg·h/mL; CL ([2]; human, iv, 4 mg/kg): 0.1709 ± 0.064973 mL/min/kg; Cmax ([2]; human, iv, 4 mg/kg): 130.76 µg/mL; MRT ([2]; human, iv, 4 mg/kg): 3.780 ± 1.6710 h; Vdss ([2]; human, iv, 4 mg/kg): 0.03495 ± 0.011679 L/kg; t1/2 ([2]; human, iv, 4 mg/kg): 2.585 ± 1.1225 h; tmax ([2]; human, iv, 4 mg/kg): 0.47 h; AUC 0-t ([2]; human, iv, 8 mg/kg): 461.9 µg·h/mL; AUCinf ([2]; human, iv, 8 mg/kg): 629.2 µg·h/mL; CL ([2]; human, iv, 8 mg/kg): 0.2147 ± 0.039202 mL/min/kg; Cmax ([2]; human, iv, 8 mg/kg): 163.74 µg/mL; MRT ([2]; human, iv, 8 mg/kg): 2.775 ± 0.6087 h; Vdss ([2]; human, iv, 8 mg/kg): 0.03513 ± 0.00658 L/kg; t1/2 ([2]; human, iv, 8 mg/kg): 1.933 ± 0.4537 h; tmax ([2]; human, iv, 8 mg/kg): 0.37 h; AUC 0-t ([2]; human, iv, 12 mg/kg): 619.1 µg·h/mL; AUCinf ([2]; human, iv, 12 mg/kg): 1086.5 µg·h/mL; CL ([2]; human, iv, 12 mg/kg): 0.1867 ± 0.036203 mL/min/kg; Cmax ([2]; human, iv, 12 mg/kg): 179.28 µg/mL; MRT ([2]; human, iv, 12 mg/kg): 3.894 ± 0.9516 h; Vdss ([2]; human, iv, 12 mg/kg): 0.04212 ± 0.00317 L/kg; t1/2 ([2]; human, iv, 12 mg/kg): 2.724 ± 0.6667 h; tmax ([2]; human, iv, 12 mg/kg): 0.88 h; AUC 0-t ([2]; human, iv, 16 mg/kg): 886.9 µg·h/mL; AUCinf ([2]; human, iv, 16 mg/kg): 1075.8 µg·h/mL; CL ([2]; human, iv, 16 mg/kg): 0.25607 ± 0.067503 mL/min/kg; Cmax ([2]; human, iv, 16 mg/kg): 285.38 µg/mL; MRT ([2]; human, iv, 16 mg/kg): 3.287 ± 1.0560 h; Vdss ([2]; human, iv, 16 mg/kg): 0.04725 ± 0.007944 L/kg; t1/2 ([2]; human, iv, 16 mg/kg): 2.261 ± 0.8548 h; tmax ([2]; human, iv, 16 mg/kg): 0.50 h; AUC 0-t ([2]; human, iv, 20 mg/kg): 1322.1 µg·h/mL; AUCinf ([2]; human, iv, 20 mg/kg): 1638.7 µg·h/mL; CL ([2]; human, iv, 20 mg/kg): 0.20877 ± 0.003483 mL/min/kg; Cmax ([2]; human, iv, 20 mg/kg): 366.73 µg/mL; MRT ([2]; human, iv, 20 mg/kg): 3.639 ± 0.6670 h; Vdss ([2]; human, iv, 20 mg/kg): 0.04556 ± 0.008256 L/kg; t1/2 ([2]; human, iv, 20 mg/kg): 2.637 ± 0.4765 h; tmax ([2]; human, iv, 20 mg/kg): 0.50 h; ODSH plasma levels produced [2]: > 300 µg/mL; effect on myocyte [Ca^2+]i during simulated ischemia ([3]; 45 min P-MI, ODSH 1, 10, 100 μg/mL, FIG. 3): dose-dependent reduction of [Ca^2+]I; further reduction in [Ca^2+]i in the presence of KBR ([3]; ODSH 100 μg/mL with KBR 10 μmol/L, 45 min simulated ischemia, FIG. 4): no significant further reduction in [Ca^2+]i; additional effect on Ca^2+ loading during P-MI in the presence of ranolazine ([3]; ODSH 100 μg/ml with ranolazine 10 μM, FIG. 8): no additional effect on Ca^2+ loading; [Ca^++]i ([3]; PMI 45 min + ODSH 1 μg/mL, n = 7, PMI alone 1133.6 ± 78.4, Hepes 241.9 ± 23.0): 1013.8 ± 69.2 nM; [Ca^++]i ([3]; PMI 45 min + ODSH 10 μg/mL, n = 7, PMI alone 1133.6 ± 78.4): 739.0 ± 63.8 nM; [Ca^++]i ([3]; PMI 45 min + ODSH 100 μg/mL, n = 7, PMI alone 1133.6 ± 78.4): 684.3 ± 66.9 nM; [Ca^++]i ([3]; Table 6: PMI + ODSH 100 μg/mL, n = 7, PMI alone 985.5 ± 42.7, Hepes 269.6 ± 8.3): 688.6 ± 33.4 nM; effect on [Ca^2+]i during P-MI ([3]; each alone: ODSH 100 μg/ml, ranolazine 10 μM, FIG. 8, n = 7): reduced [Ca^2+]i to a similar degree
